Where two headings read alike, the source gives them in different places.
Legend:
CYP2C19 = target: T1, CYP2C19 (Homo sapiens, UniProt P33261); assay: Cytochrome P450 inhibition, CYP2C19; type: in vitro ADME; conditions: human liver microsomes; read-out: CYP450 isoform 2C19 IC50
T1 construct: tissue Cyprotex Discovery Limited; host or cells: human liver microsomes
Description: Testing was performed by Cyprotex Discovery Limited, Cheshire, UK. Six test compound concentrations (0.4, 1, 4, 10, 40 and 100 μM; final DMSO concentration 0.25%, final microsome concentration 0.25 mg·mL^−1) were either pre‐incubated for 30 min in the absence and presence of NADPH or underwent a 0 min pre‐incubation with human liver microsomes. At the end of the pre‐incubation period, the probe substrate for each cytochrome P450 (CYP450) isoform (30 μM) and NADPH (1 mM) were then added (final DMSO concentration 0.3%), and the samples were incubated for 5 min at 37°C. Probe substrates were as follows: 1A2 – phenacetin, 2C9 – diclofenac, 2C19 – mephenytoin, 2D6 – dextromethorphan, 3A4 – midazolam and testosterone. Samples were subjected to LC–MS/MS analysis to determine metabolite concentrations. A decrease in the formation of the metabolite compared with vehicle control was used to calculate an IC50 value (test compound concentration which produces 50% inhibition) for each experimental condition.

[1] = tested on: 29 enzymes and 72 receptors, including the glucocorticoid and mineralocorticoid receptors; assay: Off-target diversity screen (data not shown); conditions: in words
[2] = Single ascending dose study, pharmacokinetics; type: in vivo; conditions: human; for half-life / Cmax / Tmax / CL renal: both sexes; for half-life / Cmax / Tmax: plasma; for Tmax: median (range); for CL renal: urine and plasma
Description: (§1) A double‐blind, randomized, placebo‐controlled single ascending dose study was carried out at Simbec Research Ltd, Merthyr Tydfil, UK. Each cohort consisted of six healthy male subjects and two females of non‐child bearing potential. Two male ‘dose leader’ subjects (1 active : 1 placebo) were dosed first in each cohort. The remainder of the cohort (5 active : 1 placebo) were dosed 24 h later. Dose cohorts were 2, 5, 10, 18, 25 and 35 mg. Safety, pharmacokinetic and pharmacodynamic assessments were made at pre‐determined time‐points during each part of the study. Dose escalation was dependent upon satisfactory review of the blinded safety (up to Day 6) and pharmacokinetic (up to 24 h post‐dose) data from the preceding cohort.
(§2) Laboratory evaluation of clinical safety parameters was carried out using standard validated methods. Measurement of plasma pharmacodynamic markers [adrenocorticotropic hormone (ACTH), cortisol, 4‐androstenedione, testosterone and dehydroepiandrosterone sulphate (DHEA‐s)] was carried out using commercially available kits. Each method was fully validated prior to analysis. Urinary steroid metabolites were measured according to established methods (Boonen et al., 2013). UE2343 levels in plasma, urine and CSF was determined by LC–MS/MS using fully validated methods.
The data and statistical analysis comply with the recommendations on experimental design and analysis in pharmacology (Curtis et al., 2015). Levels of probability, P < 0.05 were deemed to constitute the threshold for statistical significance. Pharmacokinetic parameters, except Tmax (time of maximum observed drug concentration), are given as mean ± coefficient of variation (CV%). Tmax is given as median ± range. For each of the pharmacodynamic parameters [ACTH, cortisol, adrenal androgens, tetrahydrocortisols (THFs)/tetrahydrocortisone (THE) ratio], the maximum % change from baseline for each subject was subjected to ANOVA. For selected data, an additional covariate factor for the baseline was also included in the ANOVA/analysis of covariance (ANCOVA) model. Associated P‐values <0.05 for each comparison have been presented.

[3] = Clinical safety and tolerability in healthy subjects; type: in vivo, human
Description: as §1
A double‐blind, randomized, placebo‐controlled multiple ascending dose study was carried out at Linear Clinical Research Ltd, Nedlands, Australia. Each cohort consisted of eight healthy male subjects. Each subject received UE2343 or placebo twice daily (b.i.d ) (12 hourly) in the fed state for 9 days (Day 1 to Day 9) and once on the morning of Day 10 (19 doses in total). Dose cohorts were 10, 20 and 35 mg. Dose escalation and selection was dependent upon satisfactory review of the blinded safety (up to Day 17 ± 2) and plasma pharmacokinetics (up to Day 12) data from the preceding cohort. Safety, pharmacokinetic and pharmacodynamic assessments were made at pre‐determined time‐points during each part of the study.
A non‐randomized, open label, multiple dose phase I study to determine the pharmacokinetic parameters of UE2343 in CSF was carried out at Linear Clinical Research Ltd, Nedlands, Australia. Four healthy male subjects each received 35 mg UE2343 b.i.d (12 hourly) fed (30 min after the start of a standard meal) for 3 days (Day 1 to Day 3) and once on the morning of Day 4 (seven doses in total). Plasma pharmacokinetic samples were taken from each subject on Day 1 and Day 4. A single CSF sample was taken from each subject at 5 h post‐final dose on Day 4, corresponding to the plasma Tmax (time to maximum plasma concentration).
as §2

[4] = single oral dose 10 mg, mean (CV%)
[5] = single oral dose 18 mg, mean (CV%)
[6] = single oral dose 25 mg, mean (CV%)
[7] = single oral dose 35 mg, mean (CV%)
[8] = multiple ascending dose study, 24 subjects (active and placebo)
[9] = multiple ascending dose study, in words

T1 sequence (P33261 whole entry, canonical isoform): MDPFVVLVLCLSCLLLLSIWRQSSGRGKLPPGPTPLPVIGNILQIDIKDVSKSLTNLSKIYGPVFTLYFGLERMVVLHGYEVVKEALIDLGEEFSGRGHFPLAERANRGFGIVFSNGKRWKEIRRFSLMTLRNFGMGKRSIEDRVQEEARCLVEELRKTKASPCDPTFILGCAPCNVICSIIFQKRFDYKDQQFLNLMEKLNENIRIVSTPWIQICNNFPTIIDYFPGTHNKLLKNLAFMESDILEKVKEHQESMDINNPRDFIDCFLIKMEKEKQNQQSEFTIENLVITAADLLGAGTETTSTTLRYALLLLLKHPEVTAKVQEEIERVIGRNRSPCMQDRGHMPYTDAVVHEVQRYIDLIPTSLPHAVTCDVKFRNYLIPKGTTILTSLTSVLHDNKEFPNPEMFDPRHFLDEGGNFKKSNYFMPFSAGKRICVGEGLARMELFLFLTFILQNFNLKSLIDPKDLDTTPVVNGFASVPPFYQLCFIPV

SMILES: O=C(c1csc(-c2cn[nH]c2)c1)N1C2CCC1CC(O)(c1ncccn1)C2 (stereo not drawn) [compound 4]
- IC50 (CYP2C19): 1700 nM
- off‐target profile in diversity screen [1]: clean off‐target profile
- half-life ([2]; oral, single doses, range across doses): 10.5 to 18.7 h
- Cmax [2, 4]: 40.4 ng/mL
- half-life [2, 4]: 18.7 h
- Tmax ([2]; single oral dose 10 mg): 3.5 h
- Cmax [2, 5]: 136 ng/mL
- half-life [2, 5]: 13.6 h
- Tmax ([2]; single oral dose 18 mg): 4 h
- Cmax [2, 6]: 278 ng/mL
- half-life [2, 6]: 10.5 h
- Tmax ([2]; single oral dose 25 mg): 4 h
- Cmax [2, 7]: 329 ng/mL
- half-life [2, 7]: 11.4 h
- Tmax ([2]; single oral dose 35 mg): 4 h
- CL renal ([2]; oral, single doses, read-out: renal clearance (CLR)): < 2.17 mL/min
- CL renal ([2]; single oral dose 10 mg, mean (CV%), read-out: CLR (renal clearance) (converted)): 1.17 mL/min
- CL renal ([2]; single oral dose 18 mg, mean (CV%), read-out: CLR (renal clearance) (converted)): 2.67 mL/min
- CL renal ([2]; single oral dose 25 mg, mean (CV%), read-out: CLR (renal clearance) (converted)): 2.17 mL/min
- CL renal ([2]; single oral dose 35 mg, mean (CV%), read-out: CLR (renal clearance) (converted)): 2 mL/min
- Urinary excretion, % of the respective doses ([2]; single doses): ≤ 1.8%
- Plasma levels ([2]; single doses of 2 and 5 mg, in words): below the level of quantification
- AUC0‐t [2, 4]: 550 (90%) ng^.h·mL^−1
- AUC0‐∞ [2, 4]: 856 (70%) ng^.h·mL^−1
- Ae(0–120h) (%) [2, 4]: 0.53 (85%)
- Ae(0–120h), amount excreted in urine [2, 4]: 52.5 (85%) μg
- Oral clearance [2, 4]: 18.5 (75%) L·h^−1
- AUC0‐t [2, 5]: 2291 (87%) ng^.h·mL^−1
- AUC0‐∞ [2, 5]: 2581 (84%) ng^.h·mL^−1
- Ae(0–120h) (%) [2, 5]: 1.67 (66%)
- Ae(0–120h), amount excreted in urine [2, 5]: 300 (66%) μg
- Oral clearance [2, 5]: 14.5 (90%) L·h^−1
- AUC0‐t [2, 6]: 3486 (39%) ng^.h·mL^−1
- AUC0‐∞ [2, 6]: 3825 (35%) ng^.h·mL^−1
- Ae(0–120h) (%) [2, 6]: 1.75 (37%)
- Ae(0–120h), amount excreted in urine [2, 6]: 438 (37%) μg
- Oral clearance [2, 6]: 7.32 (38%) L·h^−1
- AUC0‐t [2, 7]: 4016 (30%) ng^.h·mL^−1
- AUC0‐∞ [2, 7]: 4261 (29%) ng^.h·mL^−1
- Ae(0–120h) (%) [2, 7]: 1.43 (15%)
- Ae(0–120h), amount excreted in urine [2, 7]: 501 (15%) μg
- Oral clearance [2, 7]: 8.78 (28%) L·h^−1
- safety and tolerability ([3]; 2 to 35 mg q.d and 10 to 35 mg b.i.d, in words): safe and well tolerated
- intensity of TEAEs ([3]; CSF study, 35 mg b.i.d, in words): mild to moderate
- increased alanine aminotransferase, subjects ([3]; CSF study, four subjects, in words): a single subject
- diarrhoea, subjects [3, 8]: 2/24
- headache (most common TEAE), subjects [3, 8]: 7/24
- thrombophlebitis, subjects [3, 8]: 3/24
- intensity of TEAEs [3, 9]: mild or moderate
- serious TEAEs or TEAEs leading to withdrawal [3, 9]: No serious TEAEs
- number of subjects with ≥1 TEAEs ([3]; single ascending dose study): 9

From PMC5301048, “Selection and early clinical evaluation of the brain‐penetrant 11β‐hydroxysteroid dehydrogenase type 1 (11β‐HSD1) inhibitor UE2343 (Xanamem™)” (British Journal of Pharmacology, 2017)
